Measured values from publication PMC2993763 (Journal of natural products, 2010).
Values joined by “and” are separate entries in the source; they are usually repeats but may differ in a detail not shown here. Equal values may be shown once.

Experiments:
[1] = system: HT-29 human colon cancer cell line; assay: Cytotoxicity assay; type: cell-based; conditions: HT-29 cells, three days incubation, SRB stain
[2] = system: P-388 lymphocytic leukemia; conditions: administered both ip and iv; cited from earlier work
[3] = cited from earlier work

SMILES	ED50, cytotoxicity HT-29 [1]	activity in the P-388 lymphocytic leukemia test system in vivo [2]	activity in the in vivo hollow fiber assay [3]
COC(=O)[C@H]1[C@@H](O)[C@@]2(O)c3c(OC)cc(O[C@@H]4O[C@@H]([C@@H](O)CO)CO[C@@H]4OC)cc3O[C@@]2(c2ccc(OC)cc2)[C@@H]1c1ccccc1 [Compound 2, 2‴,5‴-diepi-silvestrol]	1100 nM and 1070 nM	–	–
COC(=O)[C@H]1[C@@H](O)[C@@]2(O)c3c(OC)cc(O[C@@H]4O[C@@H]([C@H](O)CO)CO[C@H]4OC)cc3O[C@@]2(c2ccc(OC)cc2)[C@@H]1c1ccccc1 [Compound 7, silvestrol]	0.7 nM	showed activity	active
COC(=O)[C@H]1[C@@H](O)[C@@]2(O)c3c(OC)cc(O[C@@H]4O[C@@H]([C@@H](O)CO)CO[C@H]4OC)cc3O[C@@]2(c2ccc(OC)cc2)[C@@H]1c1ccccc1 [Compound 8, episilvestrol (5‴-epi-silvestrol)]	1 nM	–	–
COC(=O)[C@H]1[C@@H](O)[C@@]2(O)c3c(OC)cc(O[C@@H]4O[C@@H]([C@H](O)CO)CO[C@@H]4OC)cc3O[C@@]2(c2ccc(OC)cc2)[C@@H]1c1ccccc1 [Compound 1, 2‴-epi-silvestrol]	2300 nM and 2290 nM	–	–
